Earlier results, collected in patent publication US12280067B2 (Phenolics, LLC, priority 2019, dated 2025).

Assays:
[1] = system: Caco-2 monolayers; settings: Dash et al. 2001
[2] = rats, injected intravenously
[3] = oral, 6-week period, versus creatine monohydrate

Permeability via Caco-2 monolayers [1]	SMILES	ATP levels in red blood cells [2]	Bio-transformation and elimination in the body [2]	Effectiveness in achieving lean body mass, desired body weight and improved strength [3]
quite low	CN(CC(=O)O)C(=N)N [creatine]			
	CN(CC(=O)O)C(=N)NP(=O)(O)O [phosphocreatine, N-Methyl-N-(phosphono-carbamimidoyl)glycine]	significant elevation	very rapidly	as effective as creatine monohydrate
